This is an account of results in PMC9631757 (2022).

One may read the Kd as a measure of binding affinity in units of concentration. Lower therefore signals tighter binding.

The structures appear in SMILES notation. A value given as a limit tells only on which side of the number the result lay.

This test concerns CBZ aptamer (DNA, aptamer) CGAGGCTCTCGGGACGACGGGGCACGGGCCTCTGGGTCGGCATGGCCCGTCGTCCCGCCTTTAGGATTTACAG
As to conditions: upper bound only; assay and buffer not stated.

The compound `NC(=O)N1c2ccccc2C=Cc2ccccc21` had a Kd of less than 12 nM.
